Target: T1, human TLR7 (Homo sapiens, UniProt Q9NYK1)
T1 construct: host or cells: HEK293 (HEK-Blue hTLR7)
T1 sequence (Q9NYK1 27-1049): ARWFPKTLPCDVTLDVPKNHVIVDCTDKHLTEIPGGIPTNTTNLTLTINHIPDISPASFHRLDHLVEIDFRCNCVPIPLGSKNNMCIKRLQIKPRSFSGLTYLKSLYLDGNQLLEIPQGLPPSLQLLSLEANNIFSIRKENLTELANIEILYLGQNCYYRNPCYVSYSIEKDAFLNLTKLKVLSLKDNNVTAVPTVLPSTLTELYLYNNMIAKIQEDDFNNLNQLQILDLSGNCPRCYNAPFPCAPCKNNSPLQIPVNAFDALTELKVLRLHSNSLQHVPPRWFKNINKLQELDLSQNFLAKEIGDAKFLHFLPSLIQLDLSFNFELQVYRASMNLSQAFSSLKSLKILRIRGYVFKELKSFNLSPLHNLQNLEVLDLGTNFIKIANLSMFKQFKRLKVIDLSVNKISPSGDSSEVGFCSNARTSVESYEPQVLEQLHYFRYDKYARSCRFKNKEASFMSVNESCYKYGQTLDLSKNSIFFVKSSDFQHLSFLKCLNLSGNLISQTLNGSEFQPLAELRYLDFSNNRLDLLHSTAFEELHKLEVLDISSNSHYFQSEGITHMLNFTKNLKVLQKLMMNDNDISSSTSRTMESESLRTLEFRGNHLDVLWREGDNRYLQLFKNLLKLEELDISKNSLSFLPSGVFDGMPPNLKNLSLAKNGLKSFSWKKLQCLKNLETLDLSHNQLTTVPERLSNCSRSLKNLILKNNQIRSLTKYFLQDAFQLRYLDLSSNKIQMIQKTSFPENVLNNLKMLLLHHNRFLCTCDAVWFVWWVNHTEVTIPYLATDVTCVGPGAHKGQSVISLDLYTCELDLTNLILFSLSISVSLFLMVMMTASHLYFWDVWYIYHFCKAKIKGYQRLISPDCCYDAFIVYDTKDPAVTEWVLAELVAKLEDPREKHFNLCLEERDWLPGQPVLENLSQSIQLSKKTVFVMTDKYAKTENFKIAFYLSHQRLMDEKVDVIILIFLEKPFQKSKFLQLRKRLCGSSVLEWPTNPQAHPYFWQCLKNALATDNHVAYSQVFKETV
Assay: HEK293-Blue hTLR7 Reporter Assay (QUANTI-BLUE, SEAP readout)
Format: cell-based
Settings: HEK-Blue-hTLR7 cells, 24 hrs treatment, Table 1, B1-B232
Description: HEK293-Blue hTLR7 Reporter Assay: HEK-Blue-hTLR7 cell line (Invivogen, Cat. No. hkb-htlr7) was designed so that the expression of the secreted embryonic alkaline phosphatase (SEAP) was induced by activating NF-κ and AP-1 via stimulating human TLR7 with TLR7 agonists. HEK-Blue-hTLR7 cells were seeded at a density of 4×10^4 cells/well in a volume of 180 μL in a 96-well plate in DMEM (Cat. No. 11965-092) supplemented with 10% (v/v) heat-inactivated fetal bovine serum (FBS) (Gibco, 10099-1441), 100 U/ml penicillin and 100 μg/ml streptomycin (Gibco, 15140122) containing 50 U/mL penicillin, […] and 10% (v/v) heat-inactivated fetal bovine serum. The cells were settled for 5 hrs, then treated with increasing amounts of tested compounds at 37° C. for 24 hrs. Then 20 μL of the supernatant from each well was incubated with 180 μL Quanti-blue substrate solution at 37° C. for 10-30 mins before the activity of the SEAP was determined at 620-655 nm using a spectrophotometer. The EC50 value for each compound was calculated with GraphPad Prism software using the sigmoidal dose-response function.

SMILES | EC50
CCCCOc1nc(N)c2ncc(Cc3cnc(N4CCN(C(=O)CCCN(C)C)CC4)c(C)c3)n2n1 [Compound B49, 1-(4-(5-((4-amino-2-butoxyimidazo[2,1-f][1,2,4]triazin-7-yl)methyl)-3-methylpyridin-2-yl)piperazin-1-yl)-4-(dimethylamino)butan-1-one] | 124 nM
CCCCOc1nc(N)c2ncc(Cc3cnc(N4CCN(C(=O)CCCCN(C)C)CC4)c(C)c3)n2n1 [Compound B50, 1-(4-(5-((4-amino-2-butoxyimidazo[2,1-f][1,2,4]triazin-7-yl)methyl)-3-methylpyridin-2-yl)piperazin-1-yl)-5-(dimethylamino)pentan-1-one] | 151 nM
CCCCOc1nc(N)c2ncc(Cc3cnc(N4CCCC4)c(C)c3)n2n1 [Compound B51, 2-butoxy-7-((5-methyl-6-(pyrrolidin-1-yl)pyridin-3-yl)methyl)imidazo[2,1-f][1,2,4]triazin-4-amine] | > 10000 nM
CCCCOc1nc(N)c2ncc(Cc3cnc(N4CCOCC4)c(C)c3)n2n1 [Compound B52, 2-butoxy-7-((5-methyl-6-morpholinopyridin-3-yl)methyl)imidazo[2,1-f][1,2,4]triazin-4-amine] | > 10000 nM
CCCCOc1nc(N)c2ncc(Cc3ccc(N4CCNCC4)nc3C)n2n1 [Compound B53, 2-butoxy-7-((2-methyl-6-(piperazin-1-yl)pyridin-3-yl)methyl)imidazo[2,1-f][1,2,4]triazin-4-amine] | 803 nM
CCCCOc1nc(N)c2ncc(Cc3ccc(C4CCNCC4)nc3C)n2n1 [Compound B54, 2-butoxy-7-((2-methyl-6-(piperidin-4-yl)pyridin-3-yl)methyl)imidazo[2,1-f][1,2,4]triazin-4-amine] | 158 nM
CCCCOc1nc(N)c2ncc(Cc3cnc(N4CC(C)NC(C)C4)c(C)c3)n2n1 (centres unmarked) [Compound B55, 2-butoxy-7-((6-(3,5-dimethylpiperazin-1-yl)-5-methylpyridin-3-yl)methyl)imidazo[2,1-f][1,2,4]triazin-4-amine] | 196 nM
CCCCOc1nc(N)c2ncc(Cc3cnc(N4CCN(C(=O)C5CCNCC5)CC4)c(C)c3)n2n1 [Compound B56, (4-(5-((4-amino-2-butoxyimidazo[2,1-f][1,2,4]triazin-7-yl)methyl)-3-methylpyridin-2-yl)piperazin-1-yl)(piperidin-4-yl)methanone] | 422 nM
CCCCOc1nc(N)c2ncc(Cc3cnc(N4CCN(C(C)=O)CC4)c(C)c3)n2n1 [Compound B57, 1-(4-(5-((4-amino-2-butoxyimidazo[2,1-f][1,2,4]triazin-7-yl)methyl)-3-methylpyridin-2-yl)piperazin-1-yl)ethan-1-one] | 3800 nM
CCCCOc1nc(N)c2ncc(Cc3cnc(N4CCN(C(=O)CN(C)C(C)=O)CC4)c(C)c3)n2n1 [Compound B58, N-(2-(4-(5-((4-amino-2-butoxyimidazo[2,1-f][1,2,4]triazin-7-yl)methyl)-3-methylpyridin-2-yl)piperazin-1-yl)-2-oxoethyl)-N-methylacetamide] | 3250 nM
CCCCOc1nc(N)c2ncc(Cc3cnc(N4CCC(CN(C)C)CC4)c(C)c3)n2n1 [Compound B59, 2-butoxy-7-((6-(4-((dimethylamino)methyl)piperidin-1-yl)-5-methylpyridin-3-yl)methyl)imidazo[2,1-f][1,2,4]triazin-4-amine] | 20 nM
CCCCOc1nc(N)c2ncc(Cc3cnc(N4CCC(N)CC4)c(C)c3)n2n1 [Compound B60, 7-((6-(4-aminopiperidin-1-yl)-5-methylpyridin-3-yl)methyl)-2-butoxyimidazo[2,1-f][1,2,4]triazin-4-amine] | 50 nM
CCCCOc1nc(N)c2ncc(Cc3ccc(N4CC(C)NC(C)C4)c(C)c3)n2n1 (centres unmarked) [Compound B61, 2-butoxy-7-(4-(3,5-dimethylpiperazin-1-yl)-3-methylbenzyl)imidazo[2,1-f][1,2,4]triazin-4-amine] | 660 nM
COc1nc(N)c2ncc(Cc3cnc(N4CCNCC4)c(C)c3)n2n1 [Compound B62, 2-methoxy-7-((5-methyl-6-(piperazin-1-yl)pyridin-3-yl)methyl)imidazo[2,1-f][1,2,4]triazin-4-amine] | > 10000 nM
CCOc1nc(N)c2ncc(Cc3cnc(N4CCNCC4)c(C)c3)n2n1 [Compound B63, 2-ethoxy-7-((5-methyl-6-(piperazin-1-yl)pyridin-3-yl)methyl)imidazo[2,1-f][1,2,4]triazin-4-amine] | 900 nM
CCCCOc1nc(N)c2ncc(Cc3ccc(C4CCNCC4)c(C)c3)n2n1 [Compound B64, 2-butoxy-7-(3-methyl-4-(piperidin-4-yl)benzyl)imidazo[2,1-f][1,2,4]triazin-4-amine] | 448 nM
CCCC(C)Oc1nc(N)c2ncc(Cc3cnc(N4CCNCC4)c(C)c3)n2n1 (centres unmarked) [Compound B65, 7-((5-methyl-6-(piperazin-1-yl)pyridin-3-yl)methyl)-2-(pentan-2-yloxy)imidazo[2,1-f][1,2,4]triazin-4-amine] | 26 nM
Cc1cc(Cc2cnc3c(N)nc(OC(C)C)nn23)cnc1N1CCNCC1 [Compound B66, 2-isopropoxy-7-((5-methyl-6-(piperazin-1-yl)pyridin-3-yl)methyl)imidazo[2,1-f][1,2,4]triazin-4-amine] | 146 nM
CCCCOc1nc(N)c2ncc(Cc3cnc(N4CCN(C(=O)[C@@H](N)[C@@H](C)CC)CC4)c(C)c3)n2n1 [Compound B67, (2S,3S)-2-amino-1-(4-(5-((4-amino-2-butoxyimidazo[2,1-f][1,2,4]triazin-7-yl)methyl)-3-methylpyridin-2-yl)piperazin-1-yl)-3-methylpentan-1-one] | 336 nM
CCCCOc1nc(N)c2ncc(Cc3cnc(N4CCN(C(=O)[C@@H]5CCCN5)CC4)c(C)c3)n2n1 [Compound B68, (S)-4-amino-2-butoxy-7-((5-methyl-6-(4-prolylpiperazin-1-yl)pyridin-3-yl)methyl)imidazo[2,1-f][1,2,4]triazine] | 106 nM
CCCCOc1nc(N)c2ncc(Cc3cnc(N4CCN(C(=O)[C@@H](N)CC(C)C)CC4)c(C)c3)n2n1 [Compound B69, (S)-2-amino-1-(4-(5-((4-amino-2-butoxyimidazo[2,1-f][1,2,4]triazin-7-yl)methyl)-3-methylpyridin-2-yl)piperazin-1-yl)-4-methylpentan-1-one] | 313 nM
CCCCOc1nc(N)c2ncc(Cc3cnc(N4CCN(C(=O)[C@@H](N)C(C)C)CC4)c(C)c3)n2n1 [Compound B70, (S)-2-amino-1-(4-(5-((4-amino-2-butoxyimidazo[2,1-f][1,2,4]triazin-7-yl)methyl)-3-methylpyridin-2-yl)piperazin-1-yl)-3-methylbutan-1-one] | 212 nM
CCCCNc1nc(N)c2ncc(Cc3cnc(N4CCN(C(=O)CN(C)C)CC4)c(C)c3)n2n1 [Compound B71, 1-(4-(5-((4-amino-2-(butylamino)imidazo[2,1-f][1,2,4]triazin-7-yl)methyl)-3-methylpyridin-2-yl)piperazin-1-yl)-2-(dimethylamino)ethan-1-one] | 31 nM
CCCCOc1nc(N)c2ncc(Cc3cnc(N4CCN(CC(=O)N(C)C)CC4)c(C)c3)n2n1 [Compound B72, 2-(4-(5-((4-amino-2-butoxyimidazo[2,1-f][1,2,4]triazin-7-yl)methyl)-3-methylpyridin-2-yl)piperazin-1-yl)-N,N-dimethylacetamide] | 493 nM
CCCCOc1nc(N)c2ncc(Cc3cnc(N4CCNC[C@@H]4C)c(C)c3)n2n1 [Compound B73, (S)-2-butoxy-7-((5-methyl-6-(2-methylpiperazin-1-yl)pyridine-3-yl)methyl)imidazo[2,1-f][1,2,4]triazin-4-amine] | 532 nM
CCCCOc1nc(N)c2ncc(Cc3cnc(N4CCNC[C@H]4C)c(C)c3)n2n1 [Compound B74, (R)-2-butoxy-7-((5-methyl-6-(2-methylpiperazin-1-yl)pyridin-3-yl)methyl)imidazo[2,1-f][1,2,4]triazin-4-amine] | 73 nM
